± gives the standard deviation of the averaged measurements.
Assays:
Test in all cases: relative viability vs DMSO control (72 h) (fraction); higher = more viable cells
[1] = tested on: SK-LMS-1
Procedure, shortened: (§1)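 Sarcoma cell lines were grown in 384-well plates seeded toward 80–90% confluence and exposed 24 h later to serially diluted compound. After 72 h at 37 °C and 5% CO2, with 0.1% DMSO vehicle and a 5 µM positive control on the plates, ATPLite was read. Relative viability, given as percent growth averaged over up to triplicate wells, was rescaled so that 1 is full and 0 is none.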

[2] = tested on: G401
Procedure, shortened: as §1

[3] = tested on: RD-ES
Procedure, shortened: as §1

[4] = tested on: KHOS-NP
Procedure, shortened: as §1

[5] = tested on: SW872
Procedure, shortened: as §1

[6] = tested on: MES-SA
Procedure, shortened: as §1

[7] = tested on: VA-ES-BJ
Procedure, shortened: as §1

[8] = tested on: SW1353
Procedure, shortened: as §1

[9] = tested on: HT1080
Procedure, shortened: as §1

[10] = tested on: RD
Procedure, shortened: as §1

[11] = tested on: SW684
Procedure, shortened: as §1

[12] = tested on: SK-ES-1
Procedure, shortened: as §1

## COc1cc2c(Oc3ccc4[nH]c(C)cc4c3F)ccnc2cc1OCC1(N)CC1 [Anlotinib]
[1]; 0.00017 µM
  relative viability: 1.08 ± 0.038
[1]; 0.00051 µM
  relative viability: 1.06 ± 0.039
[1]; 0.00152 µM
  relative viability: 1.08 ± 0.034
[1]; 0.00457 µM
  relative viability: 1.05 ± 0.015
[1]; 0.01372 µM
  relative viability: 1.06 ± 0.034
[1]; 0.04115 µM
  relative viability: 1.05 ± 0.051
[1]; 0.1235 µM
  relative viability: 1.04 ± 0.014
[1]; 0.3704 µM
  relative viability: 1.03 ± 0.032
[1]; 1.111 µM
  relative viability: 0.85 ± 0.034
[1]; 3.333 µM
  relative viability: 0.416 ± 0.017
[1]; 10 µM
  relative viability: 0.0427 ± 0.0027
[2]; 0.00017 µM
  relative viability: 0.964 ± 0.024
[2]; 0.00051 µM
  relative viability: 0.986 ± 0.046
[2]; 0.00152 µM
  relative viability: 1.01 ± 0.041
[2]; 0.00457 µM
  relative viability: 0.988 ± 0.023
[2]; 0.01372 µM
  relative viability: 0.976 ± 0.032
[2]; 0.04115 µM
  relative viability: 0.982 ± 0.041
[2]; 0.1235 µM
  relative viability: 0.955 ± 0.037
[2]; 0.3704 µM
  relative viability: 0.89 ± 0.033
[2]; 1.111 µM
  relative viability: 0.773 ± 0.0087
[2]; 3.333 µM
  relative viability: 0.445 ± 0.011
[2]; 10 µM
  relative viability: 0.163 ± 0.0031
[3]; 0.00017 µM
  relative viability: 0.9225 ± 0.0047
[3]; 0.00051 µM
  relative viability: 0.948 ± 0.017
[3]; 0.00152 µM
  relative viability: 0.969 ± 0.017
[3]; 0.00457 µM
  relative viability: 0.965 ± 0.017
[3]; 0.01372 µM
  relative viability: 0.98 ± 0.013
[3]; 0.04115 µM
  relative viability: 0.992 ± 0.048
[3]; 0.1235 µM
  relative viability: 0.977 ± 0.028
[3]; 0.3704 µM
  relative viability: 0.9545 ± 0.0092
[3]; 1.111 µM
  relative viability: 0.925 ± 0.025
[3]; 3.333 µM
  relative viability: 0.594 ± 0.062
[3]; 10 µM
  relative viability: 0.0858 ± 0.0061
[4]; 0.00017 µM
  relative viability: 1.06 ± 0.017
[4]; 0.00051 µM
  relative viability: 1.06 ± 0.022
[4]; 0.00152 µM
  relative viability: 1.06 ± 0.045
[4]; 0.00457 µM
  relative viability: 1.06 ± 0.019
[4]; 0.01372 µM
  relative viability: 1.07 ± 0.026
[4]; 0.04115 µM
  relative viability: 1.05 ± 0.038
[4]; 0.1235 µM
  relative viability: 1.04 ± 0.04
[4]; 0.3704 µM
  relative viability: 1.05 ± 0.035
[4]; 1.111 µM
  relative viability: 1.04 ± 0.064
[4]; 3.333 µM
  relative viability: 0.735 ± 0.014
[4]; 10 µM
  relative viability: 0.264 ± 0.011
[5]; 0.00017 µM
  relative viability: 0.962 ± 0.05
[5]; 0.00051 µM
  relative viability: 1.01 ± 0.022
[5]; 0.00152 µM
  relative viability: 0.985 ± 0.049
[5]; 0.00457 µM
  relative viability: 1 ± 0.036
[5]; 0.01372 µM
  relative viability: 1.02 ± 0.044
[5]; 0.04115 µM
  relative viability: 0.996 ± 0.045
[5]; 0.1235 µM
  relative viability: 1.01 ± 0.048
[5]; 0.3704 µM
  relative viability: 1 ± 0.064
[5]; 1.111 µM
  relative viability: 0.957 ± 0.03
[5]; 3.333 µM
  relative viability: 0.676 ± 0.03
[5]; 10 µM
  relative viability: 0.437 ± 0.013
[6]; 0.00017 µM
  relative viability: 0.921 ± 0.014
[6]; 0.00051 µM
  relative viability: 0.9145 ± 0.004
[6]; 0.00152 µM
  relative viability: 0.918 ± 0.015
[6]; 0.00457 µM
  relative viability: 0.9154 ± 0.0067
[6]; 0.01372 µM
  relative viability: 0.947 ± 0.016
[6]; 0.04115 µM
  relative viability: 0.949 ± 0.01
[6]; 0.1235 µM
  relative viability: 0.924 ± 0.038
[6]; 0.3704 µM
  relative viability: 0.951 ± 0.039
[6]; 1.111 µM
  relative viability: 0.841 ± 0.028
[6]; 3.333 µM
  relative viability: 0.271 ± 0.0097
[6]; 10 µM
  relative viability: 0.115 ± 0.0092
[7]; 0.00017 µM
  relative viability: 0.975 ± 0.058
[7]; 0.00051 µM
  relative viability: 0.993 ± 0.055
[7]; 0.00152 µM
  relative viability: 0.987 ± 0.031
[7]; 0.00457 µM
  relative viability: 0.979 ± 0.047
[7]; 0.01372 µM
  relative viability: 0.977 ± 0.047
[7]; 0.04115 µM
  relative viability: 0.978 ± 0.032
[7]; 0.1235 µM
  relative viability: 0.997 ± 0.027
[7]; 0.3704 µM
  relative viability: 1.022 ± 0.01
[7]; 1.111 µM
  relative viability: 0.983 ± 0.046
[7]; 3.333 µM
  relative viability: 0.62 ± 0.0081
[7]; 10 µM
  relative viability: 0.505 ± 0.044
[8]; 0.00017 µM
  relative viability: 0.9631 ± 0.0076
[8]; 0.00051 µM
  relative viability: 0.99 ± 0.046
[8]; 0.00152 µM
  relative viability: 0.985 ± 0.022
[8]; 0.00457 µM
  relative viability: 0.99 ± 0.042
[8]; 0.01372 µM
  relative viability: 0.95 ± 0.052
[8]; 0.04115 µM
  relative viability: 0.976 ± 0.029
[8]; 0.1235 µM
  relative viability: 0.9632 ± 0.0092
[8]; 0.3704 µM
  relative viability: 0.937 ± 0.028
[8]; 1.111 µM
  relative viability: 0.88 ± 0.026
[8]; 3.333 µM
  relative viability: 0.551 ± 0.021
[8]; 10 µM
  relative viability: 0.254 ± 0.018
[9]; 0.00017 µM
  relative viability: 1.023 ± 0.0019
[9]; 0.00051 µM
  relative viability: 1.03 ± 0.019
[9]; 0.00152 µM
  relative viability: 1.04 ± 0.0075
[9]; 0.00457 µM
  relative viability: 1.03 ± 0.03
[9]; 0.01372 µM
  relative viability: 1.05 ± 0.046
[9]; 0.04115 µM
  relative viability: 1.05 ± 0.036
[9]; 0.1235 µM
  relative viability: 1.07 ± 0.012
[9]; 0.3704 µM
  relative viability: 1.08 ± 0.031
[9]; 1.111 µM
  relative viability: 1.1 ± 0.051
[9]; 3.333 µM
  relative viability: 1.02 ± 0.064
[9]; 10 µM
  relative viability: 0.0879 ± 0.01
[10]; 0.00017 µM
  relative viability: 1.06 ± 0.051
[10]; 0.00051 µM
  relative viability: 1.06 ± 0.042
[10]; 0.00152 µM
  relative viability: 1.08 ± 0.035
[10]; 0.00457 µM
  relative viability: 1.07 ± 0.076
[10]; 0.01372 µM
  relative viability: 1.06 ± 0.06
[10]; 0.04115 µM
  relative viability: 1.09 ± 0.049
[10]; 0.1235 µM
  relative viability: 1.07 ± 0.066
[10]; 0.3704 µM
  relative viability: 1.04 ± 0.053
[10]; 1.111 µM
  relative viability: 0.946 ± 0.045
[10]; 3.333 µM
  relative viability: 0.594 ± 0.025
[10]; 10 µM
  relative viability: 0.217 ± 0.021
[11]; 0.00017 µM
  relative viability: 1.15 ± 0.043
[11]; 0.00051 µM
  relative viability: 1.09 ± 0.048
[11]; 0.00152 µM
  relative viability: 1.11 ± 0.022
[11]; 0.00457 µM
  relative viability: 1.11 ± 0.022
[11]; 0.01372 µM
  relative viability: 1.12 ± 0.036
[11]; 0.04115 µM
  relative viability: 1.14 ± 0.028
[11]; 0.1235 µM
  relative viability: 1.13 ± 0.021
[11]; 0.3704 µM
  relative viability: 1.11 ± 0.03
[11]; 1.111 µM
  relative viability: 1.07 ± 0.017
[11]; 3.333 µM
  relative viability: 0.847 ± 0.034
[11]; 10 µM
  relative viability: 0.502 ± 0.024
[12]; 0.00017 µM
  relative viability: 1.05 ± 0.036
[12]; 0.00051 µM
  relative viability: 1.053 ± 0.0094
[12]; 0.00152 µM
  relative viability: 1.04 ± 0.02
[12]; 0.00457 µM
  relative viability: 1.03 ± 0.074
[12]; 0.01372 µM
  relative viability: 1.07 ± 0.025
[12]; 0.04115 µM
  relative viability: 1.09 ± 0.041
[12]; 0.1235 µM
  relative viability: 1.09 ± 0.044
[12]; 0.3704 µM
  relative viability: 1.07 ± 0.02
[12]; 1.111 µM
  relative viability: 0.958 ± 0.036
[12]; 3.333 µM
  relative viability: 0.104 ± 0.0054
[12]; 10 µM
  relative viability: 0.0396 ± 0.00099

From the supplement of paper PMC10883282
